For two molecules, mortality results are on record in ChEMBL document CHEMBL3044915, “Synthesis and Insecticidal Activity of N-(4-Aryloxybenzyl)-pyrazolecarboxamide Derivatives” (1996).

Type in all cases: functional
Assay [1] concerns Tetranychus urticae. The experiment in a line: Insecticidal activity against Tetranychus urticae (two-spotted spider mite) assessed as mortality at 3.1 ppm.
The test system of assay [2] is Tetranychus urticae. Description: Insecticidal activity against Tetranychus urticae (two-spotted spider mite) assessed as mortality at 12.5 ppm.
In assay [3] the test system is Plutella xylostella. The experiment in a line: Insecticidal activity against Plutella xylostella (diamondback moth) third-instar larvae in compound treated cabbage leaf assessed as mortality at 0.8 ppm measured after 4 days. The following applies: 96 h.
The test system of assay [4] is Plutella xylostella. Description: Insecticidal activity against Plutella xylostella (diamondback moth) third-instar larvae in compound treated cabbage leaf assessed as mortality at 3.1 ppm measured after 4 days. The following applies: 96 h.
The test system of assay [5] is Plutella xylostella. Description: Insecticidal activity against Plutella xylostella (diamondback moth) third-instar larvae in compound treated cabbage leaf assessed as mortality at 12.5 ppm measured after 4 days. Particulars: 96 h.
The test system of assay [6] is Myzus persicae. The experiment in a line: Insecticidal activity against Myzus persicae (green peach aphid) assessed as mortality at 0.8 ppm measured after 4 days. The following applies: 96 h.
Assay [7] relates to Myzus persicae. The experiment in a line: Insecticidal activity against Myzus persicae (green peach aphid) assessed as mortality at 3.1 ppm measured after 4 days. Particulars: 96 h.
The test system of assay [8] is Myzus persicae. The experiment in a line: Insecticidal activity against Myzus persicae (green peach aphid) assessed as mortality at 12.5 ppm measured after 4 days. Particulars: 96 h.
Assay [9] relates to Nilaparvata lugens. The experiment in a line: Insecticidal activity against Nilaparvata lugens (brown planthopper) third-instar larvae assessed as mortality at 0.8 ppm applied through spray measured after 5 days. The following applies: 120 h.
Assay [10] concerns Nilaparvata lugens. Description: Insecticidal activity against Nilaparvata lugens (brown planthopper) third-instar larvae assessed as mortality at 3.1 ppm applied through spray measured after 5 days. Particulars: 120 h.
The test system of assay [11] is Nilaparvata lugens. The experiment in a line: Insecticidal activity against Nilaparvata lugens (brown planthopper) third-instar larvae assessed as mortality at 12.5 ppm applied through spray measured after 5 days. The following applies: 120 h.
Assay [12] concerns Nephotettix cincticeps. Description: Insecticidal activity against green rice Nephotettix cincticeps (green rice leafhopper) third-instar larvae assessed as mortality at 0.8 ppm applied through spray measured after 4 days. The following applies: Nephotettix cincticeps, 96 h.
Assay [13] relates to Nephotettix cincticeps. The experiment in a line: Insecticidal activity against green rice Nephotettix cincticeps (green rice leafhopper) third-instar larvae assessed as mortality at 3.1 ppm applied through spray measured after 4 days. Particulars: Nephotettix cincticeps, 96 h.
Assay [14] deals with Nephotettix cincticeps. Description: Insecticidal activity against green rice Nephotettix cincticeps (green rice leafhopper) third-instar larvae assessed as mortality at 12.5 ppm applied through spray measured after 4 days. The following applies: 96 h.

For `CSc1ccc(Oc2ccc(CNC(=O)c3c4c(nn3C)C(C)CC4)cc2)cc1` (stereo not drawn), the mortality (usually the percentage killed) at 3.1 ppm worked out at 80% with Tetranychus urticae [1]; 80% in the assay with Plutella xylostella [4]; 100% in the assay with Myzus persicae [7]; 30% with Nilaparvata lugens [10]; 80% in the assay with Nephotettix cincticeps [13]. Further, the mortality at 12.5 ppm in the assay on Tetranychus urticae [2] amounted to 100%; in the assay with Plutella xylostella [5], 100%; in the assay with Myzus persicae [8], 100%; in the assay with Nilaparvata lugens [11] it was 80%; in the assay with Nephotettix cincticeps [14] it was 100%. In addition, the mortality at 0.8 ppm stood at 0% in the assay on Plutella xylostella [3], 0% with Myzus persicae [6], 30% with Nilaparvata lugens [9] and 30% with Nephotettix cincticeps [12].

As to `CC1CCc2c1nn(C)c2C(=O)NCc1ccc(Oc2ccc([N+](=O)[O-])cc2)cc1` (stereo not drawn), the mortality at 3.1 ppm in the assay with Tetranychus urticae [1] worked out at 30%; with Plutella xylostella [4], 100%; in the assay with Myzus persicae [7], 100%; in the assay with Nilaparvata lugens [10] it was 80%; in the assay on Nephotettix cincticeps [13], 100%. Further, the mortality at 12.5 ppm in the assay on Tetranychus urticae [2] turned out to be 80%; with Plutella xylostella [5], 100%; in the assay with Myzus persicae [8] it was 100%; with Nilaparvata lugens [11] it was 80%; with Nephotettix cincticeps [14], 100%. Moreover, the mortality at 0.8 ppm in the assay on Plutella xylostella [3] worked out at 0%; in the assay with Myzus persicae [6], 30%; in the assay with Nilaparvata lugens [9], 0%; in the assay with Nephotettix cincticeps [12], 30%.
